From ChEMBL document CHEMBL1149452 (J Med Chem, 2006)

Assays:
[1] = biological target: T1, 17-beta-hydroxysteroid dehydrogenase type 1 (Homo sapiens, UniProt P14061); experiment: (§1) Inhibition of 17-beta HSD1 in T47D cells; assay type: functional, cell-based
T1 sequence (P14061 whole entry): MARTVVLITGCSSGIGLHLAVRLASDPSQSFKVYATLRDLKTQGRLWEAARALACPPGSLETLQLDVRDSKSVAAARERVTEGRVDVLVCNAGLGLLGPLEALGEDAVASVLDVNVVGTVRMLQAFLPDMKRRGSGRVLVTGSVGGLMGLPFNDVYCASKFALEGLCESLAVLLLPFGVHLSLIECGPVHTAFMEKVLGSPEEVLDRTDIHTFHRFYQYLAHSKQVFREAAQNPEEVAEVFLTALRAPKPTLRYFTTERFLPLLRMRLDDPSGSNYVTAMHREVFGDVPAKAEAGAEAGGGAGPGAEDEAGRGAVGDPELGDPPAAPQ

[2] = biological target: T2, 17-beta-hydroxysteroid dehydrogenase type 1 (Homo sapiens) (UniProt P14061); experiment: as §1; assay type: functional, cell-based
T2 sequence (whole entry): T1 sequence (P14061 whole entry)

Structure (SMILES) | IC50 [1] | IC50 [2]
C[C@]12CC[C@@H]3c4ccc(O)cc4C(=O)C[C@H]3[C@@H]1CCC2=O | 340 nM | –
C[C@]12CC[C@@H]3c4ccc(O)cc4CC[C@H]3[C@@H]1CC(CC(=O)NCC1CCCO1)C2=O (stereo not given in full) | 380 nM | –
C[C@]12CC[C@@H]3c4ccc(O)cc4/C(=N\O)C[C@H]3[C@@H]1CC/C2=N\O | 1900 nM | –
C[C@]12CC[C@@H]3c4ccc(O)cc4CC[C@H]3[C@@H]1CC(C(=O)NCc1cccnc1)[C@@H]2O (stereo not given in full) | 510 nM | –
CCOC(=O)CC1C[C@H]2[C@@H]3CCc4cc(O)ccc4[C@H]3CC[C@]2(C)C1=O (stereo not given in full) | 300 nM | –
CCOC[C@H]1C[C@H]2[C@@H]3CCc4cc(O)ccc4[C@H]3CC[C@]2(C)C1=O | 320 nM | –
C[C@]12CC[C@@H]3c4ccc(O)cc4CC[C@H]3[C@@H]1C/C(=C\c1ccncc1)[C@@H]2O | 4100 nM | –
C[C@]12CCC3c4ccc(O)cc4C(=O)CC3C1CC(C=O)=C2O (stereo not given in full) | – | 700 nM
CNC(=O)CC1C[C@H]2[C@@H]3CCc4cc(O)ccc4[C@H]3CC[C@]2(C)C1=O (stereo not given in full) | 1500 nM | –
CC(NC(=O)C1C[C@H]2[C@@H]3CCc4cc(O)ccc4[C@H]3CC[C@]2(C)[C@H]1O)c1ccccc1 (stereo not given in full) | 810 nM | –
